Data as given in US20230117680A1, “CYCLOPHILIN D INHIBITORS AND USES THEREOF” (The Broad Institute, Inc., priority 2019, published 2023).
“Also recorded” adds a separate entry of the source.

What was measured:
mPTP = test: inhibition of mPTP in in vitro cell culture; format: cell-based; details: result in words
Description: As disclosed herein, macrocycle inhibitors of cyclophilin D have been discovered and designed with previously unparalleled specificity. An active site binder displaying weak inhibition (IC50=15 uM) and no selectivity profile was initially optimized to 200 nM. CypD specificity was designed by building into S2 pocket residues. Bi-phenyl para-carboxylates provided the greatest level of potency (<2-30 nM) and selectivity for CypD. Co-crystal structures of these macrocycles bound to CypD were solved, and a dual binding mode was determined between active site and S2 pocket. MD simulations of co-crystal structures were conducted to observe dynamic interactions of carboxylate with S2 pocket. Initial proof of target engagement was determined via inhibition of the mPTP.

[1] = system: mPTP in isolated mice kidney mitochondria; test: inhibition of mPTP in isolated mitochondria (tolerated Ca2+ pulses before full mPTP opening); details: result in words
Description: In isolated mice kidney mitochondria, the maximum number of Ca^2+ pulses that could be tolerated before full mPTP opening was measured (see FIG. 24).

CypD = CypD (Homo sapiens, UniProt P30405); test: chymotrypsin coupled PPIase assay (Suc-AAPF-AMC substrate), CypD inhibition; format: biochemical
Excerpt: (§1) The selectivity of a compound described herein in inhibiting the activity of a first cyclophilin (e.g., CypD) over a second cyclophilin may be measured by the quotient of the IC50 value of the compound in inhibiting the activity of the second cyclophilin over the IC50 value of the compound in inhibiting the activity of the first cyclophilin. The selectivity of a compound described herein in modulating the activity of a first cyclophilin over a second cyclophilin may also be measured by the quotient of the Kd value of an adduct of the compound and the second cyclophilin over the Kd value of an adduct of the compound and the first cyclophilin (e.g., CypD). […] In certain embodiments, selectivity for inhibiting a first cyclophilin over other cyclophilins is measured by Surface Plasmon Resonance (SPR) assays as disclosed in the Examples.
(§2) Following the synthesis of the indicated library members, in vitro inhibition (IC50) assays of these hits were conducted to obtain IC50 inhibitory data. For the IC50 assays, a chymotrypsin coupled PPIase assay using Suc-AAPF-AMC as the peptide substrate was used, whereby isomerization of a peptide substrate Suc-AAPF-AMC from the cis to trans conformation allowed for proteolysis via excess a-chymotrypsin, releasing the C-terminal coumarin fluorophore.

[2] = system: 10 other cyclophilins with reported prolyl isomerase activity; test: cyclophilin specificity screen: CypD against the other cyclophilins; format: biochemical; details: result in words
Excerpt: as §1, §2
Subsequently, to determine if the compounds could both access the S2 pocket and display CypD specificity, JOMBtrans and compound 49 were screened against the 10 other cyclophilins with reported prolyl isomerase activity. […] Co-crystal structures of JOMBtrans and 49 were solved with CypD.

Sequence of CypD (P30405 30-207): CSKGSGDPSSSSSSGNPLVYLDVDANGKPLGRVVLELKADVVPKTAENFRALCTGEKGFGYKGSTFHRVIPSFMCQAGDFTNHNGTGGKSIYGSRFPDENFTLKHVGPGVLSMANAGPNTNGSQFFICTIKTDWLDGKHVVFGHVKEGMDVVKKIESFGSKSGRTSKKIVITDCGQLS

Compound	rescue of mPTP in cell culture (mPTP)	number of tolerated Ca2+ pulses before full mPTP opening [1]	IC50 (CypD; read-out: potency for CypD) [nM]	potency for CypD (in words) (CypD; result in words)	specificity / selectivity profile for CypD (in words) [2]
CC(=O)c1ccc(-c2ccc(C[C@@H]3NC(=O)[C@]4(Cc5ccccc5)CCCN(C4)C(=O)/C=C/C(=O)NCC[C@@H](C(=O)NCCOCCN)NC(=O)Cc4ccccc4CNC3=O)cc2)cc1 [A-22]	minimal rescue	extend Ca^2+ loading	–	–	–
NCCOCCNC(=O)[C@@H]1CCNC(=O)/C=C/C(=O)N2CCC[C@](Cc3ccccc3)(C2)C(=O)N[C@@H](Cc2ccc(-c3ccc(CCC(=O)O)cc3)cc2)C(=O)NCc2ccccc2CC(=O)N1 [A-81]	appears to not rescue mPTP	extend Ca^2+ loading	2.5	high potency	high specificity; also recorded: drastic preference for inhibition of CypD
